Measurements published in BigSolDB 2.1.

Cl.Nc1ccccc1
solubility (mole fraction)
Conditions | 288.15 K | 298.15 K | 308.15 K | 318.15 K | 328.15 K
in ethanol | 0.082 | 0.098 | 0.115 | 0.134 | 0.155
in methanol | 0.144 | 0.165 | 0.188 | 0.208 | 0.23
in n-propanol | 0.047 | 0.057 | 0.07 | 0.083 | 0.098
